Measured values reported in ChEMBL document CHEMBL1137966, “Thrombin inhibitors built on an azaphenylalanine scaffold” (Bioorg Med Chem Lett, 2004).

How the values were obtained:
Coagulation factor X = Coagulation factor X (Homo sapiens, UniProt P00742); assay: In vitro inhibition of Coagulation factor X
Serine protease 1 = Serine protease 1 (Homo sapiens, UniProt P07477); assay: In vitro inhibition of trypsin
Prothrombin = Prothrombin (Homo sapiens, UniProt P00734)
Description: In vitro inhibition of human alpha-thrombin

Serine protease 1, sequence (P07477 whole entry): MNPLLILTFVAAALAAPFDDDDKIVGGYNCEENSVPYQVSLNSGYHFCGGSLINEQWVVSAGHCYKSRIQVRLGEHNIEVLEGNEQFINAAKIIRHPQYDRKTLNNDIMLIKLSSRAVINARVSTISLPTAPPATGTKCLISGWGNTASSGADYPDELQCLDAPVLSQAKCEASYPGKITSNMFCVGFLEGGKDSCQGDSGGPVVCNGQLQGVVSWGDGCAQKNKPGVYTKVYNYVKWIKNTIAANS
Coagulation factor X, sequence (P00742 41-179 limits assumed): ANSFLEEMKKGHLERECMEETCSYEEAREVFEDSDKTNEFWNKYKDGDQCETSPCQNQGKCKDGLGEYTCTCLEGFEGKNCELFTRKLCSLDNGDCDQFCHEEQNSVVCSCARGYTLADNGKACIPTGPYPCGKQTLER
Coagulation factor X, sequence (P00742 235-488 limits assumed): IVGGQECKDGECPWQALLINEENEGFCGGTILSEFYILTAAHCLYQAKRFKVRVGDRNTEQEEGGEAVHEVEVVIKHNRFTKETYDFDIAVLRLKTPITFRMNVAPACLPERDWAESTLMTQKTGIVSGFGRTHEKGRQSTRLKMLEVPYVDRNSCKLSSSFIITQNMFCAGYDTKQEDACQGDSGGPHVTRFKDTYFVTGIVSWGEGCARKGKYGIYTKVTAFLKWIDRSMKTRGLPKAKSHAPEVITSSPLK

Structure (SMILES): COc1ccc2cc(S(=O)(=O)NN(Cc3cccc(C(=N)NO)c3)C(=O)N3CCCCCC3)ccc2c1
- Ki (Coagulation factor X): 103 µM
- Ki (Serine protease 1): 17 µM

Structure (SMILES): N/C(=N\O)c1ccc(CN(NS(=O)(=O)c2ccc(-c3ccccc3)cc2)C(=O)N2CCCCCC2)cc1
- Ki (Prothrombin): 1.6 µM
- Ki (Serine protease 1): > 400 µM

Structure (SMILES): CC1CCCCN1C(=O)N(Cc1cccc(C(=N)NO)c1)NS(=O)(=O)c1ccc2ccccc2c1 (stereo unspecified)
- Ki (Coagulation factor X): 5.4 µM
- Ki (Serine protease 1): 67 µM

Structure (SMILES): COc1ccc2cc(S(=O)(=O)NN(Cc3cccc(C(=N)N)c3)C(=O)N3CCCCCC3)ccc2c1
- Ki (Coagulation factor X): 3 µM
- Ki (Serine protease 1): 0.053 µM

Structure (SMILES): COc1ccc2cc(S(=O)(=O)NN(Cc3ccc(C(=N)NO)cc3)C(=O)N3CCC(C)CC3)ccc2c1
- Ki (Prothrombin): 0.38 µM
- Ki (Coagulation factor X): > 75 µM
- Ki (Serine protease 1): > 68 µM

Structure (SMILES): N/C(=N\O)c1ccc(CN(NS(=O)(=O)c2ccc3ccccc3c2)C(=O)N2CCCCC2)cc1
- Ki (Coagulation factor X): > 75 µM
- Ki (Serine protease 1): > 68 µM

Structure (SMILES): N/C(=N\O)c1cccc(CN(NS(=O)(=O)c2ccc3ccccc3c2)C(=O)N2CCCCCC2)c1
- Ki (Coagulation factor X): > 75 µM
- Ki (Serine protease 1): 32 µM

Structure (SMILES): N=C(N)c1ccc(CN(NS(=O)(=O)c2ccc(-c3ccccc3)cc2)C(=O)N2CCCCCC2)cc1
- Ki (Prothrombin): 0.15 µM
- Ki (Serine protease 1): 23 µM

Structure (SMILES): CC1CCN(C(=O)N(Cc2cccc(C(=N)NO)c2)NS(=O)(=O)c2ccc3ccccc3c2)CC1
- Ki (Coagulation factor X): > 75 µM
- Ki (Serine protease 1): > 68 µM

Structure (SMILES): N=C(N)c1cccc(CN(NS(=O)(=O)c2ccc3ccccc3c2)C(=O)N2CCCCCC2)c1
- Ki (Coagulation factor X): 3.9 µM
- Ki (Serine protease 1): 0.14 µM

Structure (SMILES): CC1CCCCN1C(=O)N(Cc1ccc(C(=N)NO)cc1)NS(=O)(=O)c1ccc2ccccc2c1 (stereo unspecified)
- Ki (Prothrombin): 0.43 µM
- Ki (Coagulation factor X): > 75 µM
- Ki (Serine protease 1): 45 µM

Structure (SMILES): CC1CCN(C(=O)N(Cc2ccc(C(=N)NO)cc2)NS(=O)(=O)c2ccc3ccccc3c2)CC1
- Ki (Prothrombin): 0.77 µM
- Ki (Coagulation factor X): > 75 µM
- Ki (Serine protease 1): > 68 µM

Structure (SMILES): CC1CCN(C(=O)N(Cc2cccc(C(=N)N)c2)NS(=O)(=O)c2ccc3ccccc3c2)CC1
- Ki (Coagulation factor X): 5.3 µM
- Ki (Serine protease 1): 0.11 µM

Structure (SMILES): COc1ccc2cc(S(=O)(=O)NN(Cc3cccc(C(=N)NO)c3)C(=O)N3CCCCC3C)ccc2c1 (stereo unspecified)
- Ki (Prothrombin): 4.2 µM
- Ki (Coagulation factor X): 111 µM
- Ki (Serine protease 1): 47 µM

Structure (SMILES): N=C(N)c1ccc(CN(NS(=O)(=O)c2ccc3ccccc3c2)C(=O)N2CCCCC2)cc1
- Ki (Prothrombin): 0.095 µM
- Ki (Coagulation factor X): 66 µM
- Ki (Serine protease 1): 13 µM

Structure (SMILES): N/C(=N\O)c1ccc(CN(NS(=O)(=O)c2ccc3ccccc3c2)C(=O)N2CCCCCC2)cc1
- Ki (Prothrombin): 0.21 µM
- Ki (Coagulation factor X): > 75 µM
- Ki (Serine protease 1): 13 µM

Structure (SMILES): N=C(N)c1ccc(CN(NS(=O)(=O)c2ccc3ccccc3c2)C(=O)N2CCCCCC2)cc1
- Ki (Coagulation factor X): 69 µM
- Ki (Serine protease 1): 10 µM

Structure (SMILES): COc1ccc2cc(S(=O)(=O)NN(Cc3ccc(C(=N)N)cc3)C(=O)N3CCC(C)CC3)ccc2c1
- Ki (Prothrombin): 0.045 µM
- Ki (Coagulation factor X): > 75 µM
- Ki (Serine protease 1): 18 µM

Structure (SMILES): CC1CCCCN1C(=O)N(Cc1ccc(C(=N)N)cc1)NS(=O)(=O)c1ccc2ccccc2c1 (stereo unspecified)
- Ki (Prothrombin): 0.085 µM
- Ki (Coagulation factor X): 53 µM
- Ki (Serine protease 1): 26 µM
